Measurements taken from US20260078120A1, “SUBSTITUTED PYRIDOPYRIMIDINONES” (MIRATI THERAPEUTICS, INC., priority 2022, published 2026).
Where two headings read alike, the source gives them in different places. Values belong to the compound of their own block, whether it stands above or below them.

Key:
[1] = test system: T47D (PI3Kα H1047R mutant) cells; assay: CellTiter-Glo 2.0 luminescent cell viability assay, 72 hours, T47D cells; assay type: cell-based; details: T47D (PI3Kα H1047R mutant) cells, CellTiter-Glo, approximately 72 hours, read-out: T47D (H1047R mutant) Viability IC50
In short: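 Viability was measured by CellTiter-Glo 2.0 luminescence after approximately 72 h of compound exposure at 37° C. Plating was 1000 cells per well the day before dosing, with ten 1:4 dilutions from a 10 µM top concentration. Values as percent of vehicle were fitted by variable-slope log(inhibitor) regression to give IC50.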

[2] = test system: SKBR3 (PI3Kα wild type) cells; assay: CellTiter-Glo 2.0 luminescent cell viability assay, 72 hours, SKBR3 cells; assay type: cell-based; details: Homo sapiens, SK-BR-3, 72 h, SKBR3 (PI3Kα wild type) cells, CellTiter-Glo, approximately 72 hours; read-out: SKBR3 (WT) Viability IC50
In short: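 Viability measured via CTG luminescence following roughly 72 hours of compound exposure at 37° C. Dosing used a 10 um starting concentration diluted 1:4 over 10 points; percent-of-vehicle data fitted with a variable-slope four-parameter model for IC50.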

SMILES: Cc1cc([C@@H](C)Nc2cnc(Cl)nc2C(=O)O)c2nc(N3Cc4ccccc4C3)c(C#N)c(=O)n2c1 [Example 11-325, (R)-2-chloro-5-((1-(3-cyano-2-(isoindolin-2-yl)-7-methyl-4-oxo-4H-pyrido[1,2-a]pyrimidin-9-yl)ethyl)amino)pyrimidine-4-carboxylic acid]
IC50 ([1]; Homo sapiens, T47D, 72 h): 3.08 µM | IC50 [2]: > 10 µM

SMILES: C[C@@H](Nc1ccccc1C(=O)O)c1cc(C2CC2)cn2c(=O)c(C#N)c(N3Cc4ccccc4C3)nc12 [Example 11-326, (R)-2-((1-(3-cyano-7-cyclopropyl-2-(isoindolin-2-yl)-4-oxo-4H-pyrido[1,2-a]pyrimidin-9-yl)ethyl)amino)benzoic acid]
IC50 ([1]; Homo sapiens, T47D, 72 h): 2.58 µM | IC50 [2]: 3.96 µM

SMILES: C[C@H](Nc1ccccc1C(=O)O)c1cc(C2CC2)cn2c(=O)c(C#N)c(N3Cc4ccccc4C3)nc12 [Example 11-327, (S)-2-((1-(3-cyano-7-cyclopropyl-2-(isoindolin-2-yl)-4-oxo-4H-pyrido[1,2-a]pyrimidin-9-yl)ethyl)amino)benzoic acid]
IC50 ([1]; Homo sapiens, T47D, 72 h): 0.143 µM | IC50 [2]: 9.93 µM

SMILES: Cc1cc([C@@H](C)OC(=O)c2nc(Cl)ccc2N)c2nc(N3CCCCC3)c(C#N)c(=O)n2c1 [Example 11-330, (R)-1-(3-cyano-7-methyl-4-oxo-2-(piperidin-1-yl)-4H-pyrido[1,2-a]pyrimidin-9-yl)ethyl 3-amino-6-chloropicolinate]
IC50 ([1]; Homo sapiens, T47D, 72 h): > 10 µM | IC50 [2]: > 10 µM

SMILES: Cc1cc([C@@H](C)Nc2ccc(Cl)nc2C(=O)O)c2nc(N3CCCCC3)c(C#N)c(=O)n2c1 [Example 11-331, (R)-6-chloro-3-((1-(3-cyano-7-methyl-4-oxo-2-(piperidin-1-yl)-4H-pyrido[1,2-a]pyrimidin-9-yl)ethyl)amino)picolinic acid]
IC50 ([1]; Homo sapiens, T47D, 72 h): 0.301 µM | IC50 [2]: > 10 µM

SMILES: Cc1cc(C(C)Nc2ccc(Cl)nc2C(=O)O)c2nc(N3CCCCC3)c(C#N)c(=O)n2c1 (centres unmarked) [Example 11-332, 6-chloro-3-((1-(3-cyano-7-methyl-4-oxo-2-(piperidin-1-yl)-4H-pyrido[1,2-a]pyrimidin-9-yl)ethyl)amino)picolinic acid]
IC50 ([1]; Homo sapiens, T47D, 72 h): 0.481 µM | IC50 [2]: 9.81 µM

SMILES: Cc1cc(C(C)Nc2ccccc2C(=O)O)c2nc(N3CCN(c4ccccc4)CC3)cc(=O)n2c1 (centres unmarked) [Example 11-335, 2-((1-(7-methyl-4-oxo-2-(4-phenylpiperazin-1-yl)-4H-pyrido[1,2-a]pyrimidin-9-yl)ethyl)amino)benzoic acid]
IC50 ([1]; Homo sapiens, T47D, 72 h): 0.386 µM | IC50 [2]: > 10 µM

SMILES: CC(=O)N1CCN(c2cc(=O)n3cc(C)cc(C(C)Nc4ccccc4C(=O)O)c3n2)CC1 (centres unmarked) [Example 11-337, 2-((1-(2-(4-acetylpiperazin-1-yl)-7-methyl-4-oxo-4H-pyrido[1,2-a]pyrimidin-9-yl)ethyl)amino)benzoic acid]
IC50 ([1]; Homo sapiens, T47D, 72 h): > 10 µM | IC50 [2]: > 10 µM

SMILES: Cc1cc(C(C)Nc2ccccc2C(=O)O)c2nc(N3C4CCC3CC4)cc(=O)n2c1 (centres unmarked) [Example 11-344, 2-((1-(2-(7-azabicyclo[2.2.1]heptan-7-yl)-7-methyl-4-oxo-4H-pyrido[1,2-a]pyrimidin-9-yl)ethyl)amino)benzoic acid]
IC50 ([1]; Homo sapiens, T47D, 72 h): 2.15 µM | IC50 [2]: > 10 µM

SMILES: Cc1cc(C(=O)N2CCCC2C(=O)O)c2nc(N3CCCCC3)cc(=O)n2c1 (centres unmarked) [Example 11-345, (7-methyl-4-oxo-2-(piperidin-1-yl)-4H-pyrido[1,2-a]pyrimidin-9-carbonyl)proline]
IC50 ([1]; Homo sapiens, T47D, 72 h): > 10 µM | IC50 [2]: > 10 µM

SMILES: Cc1cc(C(=O)N2CCCCC2C(=O)O)c2nc(N3CCCCC3)cc(=O)n2c1 (centres unmarked) [Example 11-346, 1-(7-methyl-4-oxo-2-(piperidin-1-yl)-4H-pyrido[1,2-a]pyrimidine-9-carbonyl)piperidine-2-carboxylic acid]
IC50 ([1]; Homo sapiens, T47D, 72 h): > 10 µM | IC50 [2]: > 10 µM

SMILES: Cc1cc(C(C)Nc2ccccc2C(=O)O)c2nc(N3Cc4ccccc4C3)c(C#N)c(=O)n2c1 (centres unmarked) [Example 11-349, 2-((1-(3-cyano-2-(isoindolin-2-yl)-7-methyl-4-oxo-4H-pyrido[1,2-a]pyrimidin-9-yl)ethyl)amino)benzoic acid]
IC50 ([1]; Homo sapiens, T47D, 72 h): 0.332 µM | IC50 [2]: > 10 µM

SMILES: Cc1cc(C(C)Nc2ccncc2C(=O)O)c2nc(N3Cc4ccccc4C3)c(C)c(=O)n2c1 (centres unmarked) [Example 11-350, 4-((1-(2-(isoindolin-2-yl)-3,7-dimethyl-4-oxo-4H-pyrido[1,2-a]pyrimidin-9-yl)ethyl)amino)nicotinic acid]
IC50 ([1]; Homo sapiens, T47D, 72 h): > 10 µM | IC50 [2]: > 10 µM

SMILES: Cc1cc([C@@H](C)Nc2ccc(F)nc2C(=O)O)c2nc(N3Cc4ccccc4C3)c(C)c(=O)n2c1 [Example 11-351, (R)-6-fluoro-3-((1-(2-(isoindolin-2-yl)-3,7-dimethyl-4-oxo-4H-pyrido[1,2-a]pyrimidin-9-yl)ethyl)amino)picolinic acid]
IC50 [1]: 0.946 µM | IC50 [2]: > 10 µM

Second part, the compound after the results:

IC50 ([1]; Homo sapiens, T47D, 72 h): 3.82 µM | IC50 [2]: > 10 µM
SMILES: Cc1cc([C@@H](C)Nc2ccccc2C(=O)O)c2nc(N3CCCC(O)C3)c(C#N)c(=O)n2c1 (stereo partly drawn) [Example 11-324, 2-(((1R)-1-(3-cyano-2-(3-hydroxypiperidin-1-yl)-7-methyl-4-oxo-4H-pyrido[1,2-a]pyrimidin-9-yl)ethyl)amino)benzoic acid]

IC50 [1]: 1.91 µM | IC50 [2]: 6.82 µM
SMILES: CCc1cc([C@@H](C)Nc2ccccc2C(=O)O)c2nc(N3Cc4ccccc4C3)c(C#N)c(=O)n2c1 [Example 11-328, (R)-2-((1-(3-cyano-7-ethyl-2-(isoindolin-2-yl)-4-oxo-4H-pyrido[1,2-a]pyrimidin-9-yl)ethyl)amino)benzoic acid]

IC50 ([1]; Homo sapiens, T47D, 72 h): 1.1 µM | IC50 [2]: > 10 µM
SMILES: Cc1cc([C@H](C)OC(=O)c2nc(Cl)ccc2N)c2nc(N3CCCCC3)c(C#N)c(=O)n2c1 [Example 11-329, (S)-1-(3-cyano-7-methyl-4-oxo-2-(piperidin-1-yl)-4H-pyrido[1,2-a]pyrimidin-9-yl)ethyl 3-amino-6-chloropicolinate]

IC50 ([1]; Homo sapiens, T47D, 72 h): > 10 µM | IC50 [2]: > 10 µM
SMILES: Cc1cc(C(C)Nc2ccccc2P(C)(=O)O)c2nc(N3Cc4ccccc4C3)cc(=O)n2c1 (centres unmarked) [Example 11-333, (2-((1-(2-(isoindolin-2-yl)-7-methyl-4-oxo-4H-pyrido[1,2-a]pyrimidin-9-yl)ethyl)amino)phenyl)(methyl) phosphinic acid]

IC50 ([1]; Homo sapiens, T47D, 72 h): 0.113 µM | IC50 [2]: 1.27 µM
SMILES: Cc1cc(C(C)Nc2ccccc2C(=O)O)c2nc(N3CCN(c4ccc(C#N)cc4)CC3)cc(=O)n2c1 (centres unmarked) [Example 11-334, 2-((1-(2-(4-(4-cyanophenyl)piperazin-1-yl)-7-methyl-4-oxo-4H-pyrido[1,2-a]pyrimidin-9-yl)ethyl)amino)benzoic acid]

IC50 ([1]; Homo sapiens, T47D, 72 h): 2.74 µM | IC50 [2]: > 10 µM
SMILES: Cc1cc(C(C)Nc2ccccc2C(=O)O)c2nc(N3CCN(C(=O)C4CC4)CC3)cc(=O)n2c1 (centres unmarked) [Example 11-336, 2-((1-(2-(4-(cyclopropanecarbonyl)piperazin-1-yl)-7-methyl-4-oxo-4H-pyrido[1,2-a]pyrimidin-9-yl)ethyl)amino)benzoic acid]

IC50 ([1]; Homo sapiens, T47D, 72 h): 2.42 µM | IC50 [2]: > 10 µM
SMILES: Cc1cc(C(C)Nc2ccccc2C(=O)O)c2nc(N3Cc4cccc(C#N)c4C3)cc(=O)n2c1 (centres unmarked) [Example 11-338, 2-((1-(2-(4-cyanoisoindolin-2-yl)-7-methyl-4-oxo-4H-pyrido[1,2-a]pyrimidin-9-yl)ethyl)amino)benzoic acid]

IC50 ([1]; Homo sapiens, T47D, 72 h): > 10 µM | IC50 [2]: > 10 µM
SMILES: Cc1cc(C(C)Nc2ccccc2C(=O)O)c2nc(Nc3cccc(C#N)c3)cc(=O)n2c1 (centres unmarked) [Example 11-339, 2-((1-(2-((3-cyanophenyl)amino)-7-methyl-4-oxo-4H-pyrido[1,2-a]pyrimidin-9-yl)ethyl)amino)benzoic acid]

IC50 ([1]; Homo sapiens, T47D, 72 h): > 10 µM | IC50 [2]: > 10 µM
SMILES: Cc1cc(C(C)Nc2ccccc2C(=O)O)c2nc(Oc3cccc(C#N)c3)cc(=O)n2c1 (centres unmarked) [Example 11-340, 2-((1-(2-(3-cyanophenoxy)-7-methyl-4-oxo-4H-pyrido[1,2-a]pyrimidin-9-yl)ethyl)amino)benzoic acid]

IC50 ([1]; Homo sapiens, T47D, 72 h): > 10 µM | IC50 [2]: > 10 µM
SMILES: Cc1cc(C(C)Nc2ccccc2C(=O)O)c2nc(Oc3ccccc3)cc(=O)n2c1 (centres unmarked) [Example 11-341, 2-((1-(7-methyl-4-oxo-2-phenoxy-4H-pyrido[1,2-a]pyrimidin-9-yl)ethyl)amino)benzoic acid]

IC50 ([1]; Homo sapiens, T47D, 72 h): 4.47 µM | IC50 [2]: > 10 µM
SMILES: Cc1cc(C(C)Nc2ccccc2C(=O)O)c2nc(N3CCCC(C)(O)C3)cc(=O)n2c1 (centres unmarked) [Example 11-342, 2-((1-(2-(3-hydroxy-3-methylpiperidin-1-yl)-7-methyl-4-oxo-4H-pyrido[1,2-a]pyrimidin-9-yl)ethyl)amino)benzoic acid]

IC50 ([1]; Homo sapiens, T47D, 72 h): > 10 µM | IC50 [2]: > 10 µM
SMILES: Cc1cc(C(C)Nc2ccccc2C(=O)O)c2nc(N3CCCC(O)C3)cc(=O)n2c1 (centres unmarked) [Example 11-343, 2-((1-(2-(3-hydroxypiperidin-1-yl)-7-methyl-4-oxo-4H-pyrido[1,2-a]pyrimidin-9-yl)ethyl)amino)benzoic acid]

IC50 ([1]; Homo sapiens, T47D, 72 h): > 10 µM | IC50 [2]: > 10 µM
SMILES: Cc1cc(N2CCC(C(=O)O)CC2)c2nc(N3CCCCC3)cc(=O)n2c1 [Example 11-347, 1-(7-methyl-4-oxo-2-(piperidin-1-yl)-4H-pyrido[1,2-a]pyrimidin-9-yl)piperidine-4-carboxylic acid]

IC50 ([1]; Homo sapiens, T47D, 72 h): 5.49 µM | IC50 [2]: > 10 µM
SMILES: Cc1cc(C(C)Nc2cnc(Cl)cc2C(=O)O)c2nc(N3Cc4ccccc4C3)c(C)c(=O)n2c1 (centres unmarked) [Example 11-348, 2-chloro-5-((1-(2-(isoindolin-2-yl)-3,7-dimethyl-4-oxo-4H-pyrido[1,2-a]pyrimidin-9-yl)ethyl)amino)isonicotinic acid]
